Source: ChEMBL document CHEMBL1201862, “PubChem BioAssay data set” (2004)
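Compound exposure: 48 hours, 5 concentrations, 96-well plates. Here, GI50 denotes the concentration required for 50% inhibition of growth.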 Activity calls are given as the source filed them. Rule as the data show it: active = GI50 up to about 1.1 µM and inactive = higher.

Columns and labels:
Test in all cases: growth of human tumour cells (NCI), 48 h
HL-60 = test system: HL-60
Hs-578T = test system: Hs-578T
Malme-3M = test system: Malme-3M
TK-10 = test system: TK-10
NCI-H23 = test system: NCI-H23
HCT-15 = test system: HCT-15
NCI-H460 = test system: NCI-H460
SW-620 = test system: SW-620
LOX IMVI = test system: LOX IMVI
HCT-116 = test system: HCT-116
EKVX = test system: EKVX
A549 = test system: A549
OVCAR-5 = test system: OVCAR-5
SF-295 = test system: SF-295
HT-29 = test system: HT-29
UACC-257 = test system: UACC-257
MDA-N = test system: MDA-N
DU-145 = test system: DU-145
OVCAR-3 = test system: OVCAR-3
KM12 = test system: KM12
CCRF-CEM = test system: CCRF-CEM
ACHN = test system: ACHN
T47D = test system: T47D
HOP-62 = test system: HOP-62
HCC 2998 = test system: HCC 2998
786-0 = test system: 786-0
A498 = test system: A498
MDA-MB-231 = test system: MDA-MB-231
BT-549 = test system: BT-549
OVCAR-4 = test system: OVCAR-4
SR = test system: SR
UO-31 = test system: UO-31
K562 = test system: K562
OVCAR-8 = test system: OVCAR-8
RXF 393 = test system: RXF 393
SK-OV-3 = test system: SK-OV-3
SK-MEL-28 = test system: SK-MEL-28
SK-MEL-5 = test system: SK-MEL-5
SNB-75 = test system: SNB-75
CAKI-1 = test system: CAKI-1
MOLT-4 = test system: MOLT-4
SF-539 = test system: SF-539
UACC-62 = test system: UACC-62
MCF7 = test system: MCF7
SNB-19 = test system: SNB-19
M14 = test system: M14
NCI-H226 = test system: NCI-H226
SK-MEL-2 = test system: SK-MEL-2
RPMI-8226 = test system: RPMI-8226
U-251 = test system: U-251
NCI/ADR-RES = test system: NCI/ADR-RES
SN12C = test system: SN12C
MDA-MB-435 = test system: MDA-MB-435
HOP-92 = test system: HOP-92
SF-268 = test system: SF-268
NCI-H522 = test system: NCI-H522
COLO 205 = test system: COLO 205
IGROV-1 = test system: IGROV-1
PC-3 = test system: PC-3

Structure (SMILES): NC(=S)NN=Cc1ccccc1OCc1cccc(COc2ccccc2C=NNC(N)=S)n1
- GI50 (HL-60): > 100 µM (inactive)
- GI50 (Hs-578T): 18.1 µM (inactive)
- GI50 (Malme-3M): > 54.3 µM (inactive)
- GI50 (TK-10): 14.4 µM (inactive)
- GI50 (NCI-H23): 29.8 µM (inactive)
- GI50 (HCT-15): > 61.2 µM
- GI50 (NCI-H460): > 58.6 µM (inactive)
- GI50 (SW-620): > 96.4 µM (inactive)
- GI50 (LOX IMVI): > 100 µM (inactive)
- GI50 (HCT-116): 32.7 µM (inactive)
- GI50 (EKVX): 10 µM (inactive)
- GI50 (A549): > 100 µM (inactive)
- GI50 (OVCAR-5): 29.9 µM (inactive)
- GI50 (SF-295): 6.85 µM (inactive)
- GI50 (HT-29): > 100 µM (inactive)
- GI50 (UACC-257): > 79.8 µM (inactive)
- GI50 (MDA-N): > 100 µM (inactive)
- GI50 (DU-145): 13.7 µM (inactive)
- GI50 (OVCAR-3): 42.1 µM (inactive)
- GI50 (KM12): > 100 µM (inactive)
- GI50 (CCRF-CEM): > 100 µM (inactive)
- GI50 (ACHN): 20.6 µM (inactive)
- GI50 (T47D): > 38.2 µM (inactive)
- GI50 (HOP-62): 6.56 µM (inactive)
- GI50 (HCC 2998): > 100 µM (inactive)
- GI50 (786-0): 12.4 µM (inactive)
- GI50 (A498): 17.5 µM (inactive)
- GI50 (MDA-MB-231): 6.92 µM (inactive)
- GI50 (BT-549): 13.6 µM (inactive)
- GI50 (OVCAR-4): > 100 µM (inactive)
- GI50 (SR): > 100 µM (inactive)
- GI50 (UO-31): 28.2 µM (inactive)
- GI50 (K562): > 100 µM (inactive)
- GI50 (OVCAR-8): 6.01 µM (inactive)
- GI50 (RXF 393): 2.4 µM (inactive)
- GI50 (SK-OV-3): 9.89 µM (inactive)
- GI50 (SK-MEL-28): > 100 µM (inactive)
- GI50 (SK-MEL-5): > 100 µM (inactive)
- GI50 (SNB-75): 1.78 µM (inactive)
- GI50 (CAKI-1): > 100 µM (inactive)
- GI50 (MOLT-4): > 100 µM (inactive)
- GI50 (SF-539): 7.93 µM (inactive)
- GI50 (UACC-62): 19.3 µM (inactive)
- GI50 (MCF7): > 100 µM (inactive)
- GI50 (SNB-19): 9.89 µM (inactive)
- GI50 (M14): > 100 µM (inactive)
- GI50 (NCI-H226): > 34.4 µM (inactive)
- GI50 (SK-MEL-2): 6.89 µM (inactive)
- GI50 (RPMI-8226): > 100 µM (inactive)
- GI50 (U-251): 4.55 µM (inactive)
- GI50 (NCI/ADR-RES): 40.6 µM (inactive)
- GI50 (SN12C): > 79.3 µM (inactive)
- GI50 (MDA-MB-435): > 100 µM (inactive)
- GI50 (HOP-92): 3.72 µM (inactive)
- GI50 (SF-268): 5.46 µM (inactive)
- GI50 (NCI-H522): > 64.9 µM (inactive)
- GI50 (COLO 205): > 87.7 µM (inactive)
- GI50 (IGROV-1): 13.7 µM (inactive)
- GI50 (PC-3): > 57.7 µM (inactive)

Structure (SMILES): C/C(=C\[C@H]1C[C@@H]([C@@H]2CC[C@]34C[C@]23C=C[C@@H]2[C@@]3(C)CC=C5C[C@@H](c6ccccc6)OC[C@]5(C)[C@@H]3C[C@@H](O)[C@]24C)C(=O)O1)CO [DICHAPETALIN A]
- GI50 (HL-60): 1.2 µM (inactive)
- GI50 (Hs-578T): 10.9 µM (inactive)
- GI50 (Malme-3M): 3.56 µM (inactive)
- GI50 (TK-10): 2.84 µM (inactive)
- GI50 (NCI-H23): 1.19 µM (inactive)
- GI50 (HCT-15): 4.38 µM
- GI50 (NCI-H460): 0.721 µM (active)
- GI50 (SW-620): 2.72 µM (inactive)
- GI50 (LOX IMVI): 1.52 µM (inactive)
- GI50 (HCT-116): 1.14 µM (inactive)
- GI50 (EKVX): 1.51 µM (inactive)
- GI50 (A549): 2.79 µM (inactive)
- GI50 (OVCAR-5): 9.82 µM (inactive)
- GI50 (SF-295): 1.34 µM (inactive)
- GI50 (HT-29): 2.01 µM (inactive)
- GI50 (UACC-257): 1.96 µM (inactive)
- GI50 (MDA-N): 1.71 µM (inactive)
- GI50 (DU-145): 10.2 µM (inactive)
- GI50 (OVCAR-3): 3.52 µM (inactive)
- GI50 (KM12): 2.45 µM (inactive)
- GI50 (CCRF-CEM): 1.04 µM (active)
- GI50 (ACHN): 3.33 µM (inactive)
- GI50 (T47D): 2.84 µM (inactive)
- GI50 (HOP-62): 10.2 µM (inactive)
- GI50 (HCC 2998): 6 µM (inactive)
- GI50 (786-0): 4.38 µM (inactive)
- GI50 (A498): 0.437 µM (active)
- GI50 (MDA-MB-231): 5.35 µM (inactive)
- GI50 (BT-549): 3.78 µM (inactive)
- GI50 (OVCAR-4): 3.03 µM (inactive)
- GI50 (SR): < 0.01 µM (active)
- GI50 (UO-31): 2.48 µM (inactive)
- GI50 (K562): 0.553 µM (active)
- GI50 (OVCAR-8): 4.91 µM (inactive)
- GI50 (RXF 393): 77.8 µM (inactive)
- GI50 (SK-OV-3): > 36.8 µM (inactive)
- GI50 (SK-MEL-28): 3.74 µM (inactive)
- GI50 (SK-MEL-5): 0.286 µM (active)
- GI50 (SNB-75): 3.55 µM (inactive)
- GI50 (CAKI-1): 2.08 µM (inactive)
- GI50 (MOLT-4): 1.59 µM (inactive)
- GI50 (SF-539): 5.08 µM (inactive)
- GI50 (UACC-62): 9.02 µM (inactive)
- GI50 (MCF7): 1.78 µM (inactive)
- GI50 (SNB-19): 11.8 µM (inactive)
- GI50 (M14): 2.77 µM (inactive)
- GI50 (NCI-H226): 14.9 µM (inactive)
- GI50 (SK-MEL-2): 31.4 µM (inactive)
- GI50 (RPMI-8226): 0.624 µM (active)
- GI50 (U-251): 1.04 µM (active)
- GI50 (NCI/ADR-RES): 3.08 µM (inactive)
- GI50 (SN12C): 1.91 µM (inactive)
- GI50 (MDA-MB-435): 2.48 µM (inactive)
- GI50 (HOP-92): 1.95 µM (inactive)
- GI50 (SF-268): 6.75 µM (inactive)
- GI50 (NCI-H522): 2.88 µM (inactive)
- GI50 (COLO 205): 2.01 µM (inactive)
- GI50 (IGROV-1): 2.92 µM (inactive)
- GI50 (PC-3): 2.64 µM (inactive)

Structure (SMILES): O=C(Cc1nc2ccccc2[nH]c1=O)c1c[nH]c2ccccc12
- GI50 (HL-60): 10.3 µM (inactive)
- GI50 (Hs-578T): 49 µM (inactive)
- GI50 (Malme-3M): 32.9 µM (inactive)
- GI50 (TK-10): 7.57 µM (inactive)
- GI50 (NCI-H23): 20.4 µM (inactive)
- GI50 (HCT-15): 8.18 µM
- GI50 (NCI-H460): 6.58 µM (inactive)
- GI50 (SW-620): 24.9 µM (inactive)
- GI50 (LOX IMVI): 13.7 µM (inactive)
- GI50 (HCT-116): 13.8 µM (inactive)
- GI50 (EKVX): 29.6 µM (inactive)
- GI50 (A549): 10.9 µM (inactive)
- GI50 (OVCAR-5): 23.6 µM (inactive)
- GI50 (SF-295): 9.04 µM (inactive)
- GI50 (HT-29): 6.08 µM (inactive)
- GI50 (UACC-257): 23.8 µM (inactive)
- GI50 (MDA-N): 12.1 µM (inactive)
- GI50 (DU-145): 15.2 µM (inactive)
- GI50 (OVCAR-3): 14 µM (inactive)
- GI50 (KM12): 5.77 µM (inactive)
- GI50 (CCRF-CEM): 4.3 µM (inactive)
- GI50 (ACHN): 10.5 µM (inactive)
- GI50 (T47D): 12.2 µM (inactive)
- GI50 (HOP-62): 21 µM (inactive)
- GI50 (HCC 2998): 13.3 µM (inactive)
- GI50 (786-0): 13.9 µM (inactive)
- GI50 (A498): 14.7 µM (inactive)
- GI50 (MDA-MB-231): 19.1 µM (inactive)
- GI50 (BT-549): 12.2 µM (inactive)
- GI50 (OVCAR-4): 11.4 µM (inactive)
- GI50 (SR): 4.42 µM (inactive)
- GI50 (UO-31): 11.9 µM (inactive)
- GI50 (K562): 6.07 µM (inactive)
- GI50 (OVCAR-8): 14.1 µM (inactive)
- GI50 (RXF 393): 17.5 µM (inactive)
- GI50 (SK-OV-3): 18.1 µM (inactive)
- GI50 (SK-MEL-5): 10.8 µM (inactive)
- GI50 (SNB-75): 25.1 µM (inactive)
- GI50 (CAKI-1): 20.2 µM (inactive)
- GI50 (MOLT-4): 6.01 µM (inactive)
- GI50 (SF-539): 19.2 µM (inactive)
- GI50 (UACC-62): 13.6 µM (inactive)
- GI50 (MCF7): 11.6 µM (inactive)
- GI50 (SNB-19): 25.8 µM (inactive)
- GI50 (M14): 15.3 µM (inactive)
- GI50 (NCI-H226): 11.9 µM (inactive)
- GI50 (SK-MEL-2): 10.1 µM (inactive)
- GI50 (RPMI-8226): 6.92 µM (inactive)
- GI50 (U-251): 13.7 µM (inactive)
- GI50 (NCI/ADR-RES): 8.65 µM (inactive)
- GI50 (SN12C): 13.8 µM (inactive)
- GI50 (MDA-MB-435): 13.7 µM (inactive)
- GI50 (HOP-92): 23.2 µM (inactive)
- GI50 (SF-268): > 100 µM (inactive)
- GI50 (NCI-H522): 14.8 µM (inactive)
- GI50 (COLO 205): 11.1 µM (inactive)
- GI50 (IGROV-1): 20.3 µM (inactive)
- GI50 (PC-3): 10.5 µM (inactive)
